In data set [1] the test system is 4T1-T^VM cells. Description: plating remaining treated cells in 2D (cell viability). The data set is classed as cell-based, mouse. The following applies: remaining treated cells plated in 2D. From the text: To ascertain whether regulation of VM underlies these effects of IRE1 on metastasis we turned to the in vitro VM tube assay. Inhibition of IRE1 with two independent small molecule inhibitors of its RNAse activity enhanced VM tubulogenesis while activation of IRE1 with Tunicamycin suppressed VM (FIGS. 4E and F).

The conditions of data set [2]: low-dose, IRE1 activation in vivo; cited from earlier work.
Data set [3] concerns 4T1-T^VM cells. Description: polyA+ RNA-Seq of treated cells with GO analysis and GSEA. The data set is classed as cell-based, mouse. The source says:
Y axis is log^2 fold change mRNA levels and X axis is the negative log^10 of the corrected p-value. Red points highlight significant changes with a p value below 0.05.
To assess the role of VM as a resistance mechanism in this clinical cohort, we examined whether this Bev resistance gene signature was altered by perturbations that influence VM (FIGS. 9A-9C). […] Thus, co-targeting of VM may enhance response to anti-angiogenic cancer therapies.

In data set [4] the test system is 4T1-T^VM cells. In words: in vitro VM tube assay on Matrigel. The following applies: 4T1-T^VM cells treated directly, plated on Matrigel. In kind it is cell-based, mouse. From the text:
FIG. 1G are gel photographs showing the results of an in vitro Matrigel assay for VM. Only VM clones 4T1-E and 4T1-T can form tube structures when plated on Matrigel. All data from ref. 7.
Both SerpinE2 and SLPI are secreted proteins but whether their secretion is necessary for their effects on VM is unknown. To ascertain the importance of intra- vs extracellular localization of SerpinE2 and SLPI, we perform knockdown add-back experiments in which we suppress SerpinE2 or SLPI in 4T1-T^VM cells using shRNAs directed against the 3′ UTR followed by re-expression of HALO-tagged coding sequence constructs (FIG. 2) in which the signal peptide (a necessary signal for secretion) is either present or absent^8. These engineered cell lines then are tested for their ability to form VM tubes in vitro in the Matrigel assay and their ability to form VM channels and metastases in vivo by transplantation into the mammary fat-pad of Balb/C mice.
To ascertain whether regulation of VM underlies these effects of IRE1 on metastasis we turned to the in vitro VM tube assay. Inhibition of IRE1 with two independent small molecule inhibitors of its RNAse activity enhanced VM tubulogenesis while activation of IRE1 with Tunicamycin suppressed VM (FIGS. 4E and F). […]

The conditions of data set [5]: cancer patients; cited from earlier work.

Entries after “also recorded” stand apart in the source; their conditions may differ.

The source of these data is patent US20190105340A1, “METHODS AND COMPOSITIONS FOR TARGETING VASCULAR MIMICRY” (New York Genome Center, Inc., priority 2017, published 2019).

Consider Tunicamycin, for which, in data set [1], the “effects on cell viability” value is “ruled out any demonstrable effects on cell viability”. Also, the toxicity in vivo result in data set [2] is “without apparent toxicity”. In data set [3] (DESeq corrected p value<0.05), the “GO analysis of genes significantly down-regulated by Tunicamycin/IRE1 activation and up-regulated by IRE1 inhibition” value is “enriched for regulators of vasculature development and secreted ECM/ECM-affiliated genes”; the “GO analysis of genes significantly up-regulated by Tunicamycin/IRE1 activation and down-regulated by IRE1 inhibition” value is recorded as “enrichment of terms related to ER stress”. Besides, the “Bev resistance gene signature (GSEA)” value in data set [3] (bevacizumab resistance genes of Mehta et al. in IRE1-regulated expression data) is recorded as “globally down-regulated; also recorded: profoundly suppresses”. Further, the “VM gene signature (GSEA)” value in data set [3] (signature from VM clones vs all other clones) is “profoundly suppresses”. The “VM tubulogenesis (tube formation)” value in data set [4] was “suppressed VM; also recorded: profoundly suppresses VM tubulogenesis”.

For the substance “Avastin®/bevacizumab: VEGF-blocking antibody (Genentech)”, the clinical response entry in data set [5] was “most patients showing transient responses followed by inevitable resistance”.
